For assay [1], the target named is T1, unphosphorylated VEGF-R2Δ50 (FLVK) (Homo sapiens, UniProt P35968, DEL940-989/E990V).
T1 construct: VEGF-R2Δ50 contains residues 806-939 and 990-1171; made in house; host or cells: baculovirus/insect cells
Briefly: VEGF-R2 coupled spectrophotometric assay, unphosphorylated enzyme (FLVK). It counts as biochemical. Put shortly:
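Unphosphorylated VEGF-R2Δ50 (5 to 40 nM) with 20 mM poly(E4Y1), 3 mM ATP, 60 mM MgCl2, 2 mM MnCl2 in 200 mM Hepes pH 7.5. ADP production coupled via PK/LDH to NADH oxidation, read at 340 nm. Ki from activity at varying compound concentrations.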

For assay [2], the target named is T2, phosphorylated VEGF-R2Δ50 (FLVK-P) (Homo sapiens, UniProt P35968, DEL940-989/E990V).
T2 construct: VEGF-R2Δ50 contains residues 806-939 and 990-1171; made in house; host or cells: baculovirus/insect cells
In words: VEGF-R2 coupled spectrophotometric (FLVK-P) assay. It counts as biochemical. To be noted: Table 1; spectrophotometric assay. Summed up:
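Baculovirus-expressed human VEGF-R2Δ50 (residues 806-939/990-1171, E990V) was autophosphorylated with 3 mM ATP, 40 mM MgCl2 for 2 h at 4° C. ADP formation was coupled via PK/LDH to NADH oxidation, read at 340 nm, with 5.1 mM poly(E4Y1), 1 mM ATP, 25 mM MgCl2, Hepes pH 7.5. Ki came from activity across compound concentrations.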

Assay [3] deals with lung cancer cells (line MV522). Briefly: Cancer cell proliferation (MV522) assay. It counts as cell-based. The protocol:
Cancer Cell Proliferation (MV522) Assay
The protocol for assessing cellular proliferation in cancer cells is similar to that used for assessments in HUVEC cells. Two thousand lung cancer cells (line MV522, acquired from American Tissue Cultural Collection) were seeded in growth media (RPMI1640 medium supplemented with 2 mM glutamine and 10% FBS). Cells are allowed to attach for 1 day prior to addition of test agents and/or vehicles. Cells are treated simultaneously with the same test agents used in the HUVEC assay. Cellular proliferation is quantified by MTT dye reduction assay 72 hours after exposure to test agents. The total length of the assay is 4 days vs. 5 for HUVEC cells because MV522 cells are not exposed to starvation medium.

Assay [4] relates to human umbilical vein endothelial cells (HUVEC). In words: HUVEC proliferation assay. It counts as cell-based. Conditions: Homo sapiens, HUVEC. Put shortly:
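Readout was MTT dye reduction (A595) after 72 h of stimulation with VEGF at 6 ng/ml final. Compound, in 0.1% DMSO final, was added 1 h before VEGF to HUVEC starved 24 h in 1% FBS. % inhibition was scaled between VEGF-alone and unstimulated wells; IC50 was fitted from triplicate dose curves.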

pIC50, pKi: −log10 of the molar value. Some results are limits rather than exact numbers.

T2 sequence (P35968 with tags, fused parts or gaps DEL940-989/E990V limits assumed): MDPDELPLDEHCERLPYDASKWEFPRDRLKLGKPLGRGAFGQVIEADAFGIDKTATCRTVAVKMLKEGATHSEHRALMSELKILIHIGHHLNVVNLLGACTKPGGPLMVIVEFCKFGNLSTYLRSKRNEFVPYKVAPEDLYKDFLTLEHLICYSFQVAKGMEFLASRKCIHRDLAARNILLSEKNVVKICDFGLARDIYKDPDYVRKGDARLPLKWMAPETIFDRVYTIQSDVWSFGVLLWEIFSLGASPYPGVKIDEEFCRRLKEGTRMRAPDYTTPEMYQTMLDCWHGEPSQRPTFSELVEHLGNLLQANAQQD
T1 sequence (P35968 with tags, fused parts or gaps DEL940-989/E990V limits assumed): as above

On to `COc1cc(Nc2nc(N)c(-c3nc(-c4cccc(NC(=O)c5cccc(C)c5)c4)no3)s2)cc(OC)c1OC` [D(47), 3-[3-(3-Methylbenzamido)phenyl]-5-[2-[(3,4,5-trimethoxyphenyl)amino]-4-amino-5-thiazolyl]-1,2,4-oxadiazole], for which the pKi – broadly, the negative decadic logarithm of the Ki, by convention in mol/L – in assay [1] (Table 1) was 9.47; in assay [2] it was 8.96. The pIC50 (usually the negative decadic logarithm of the IC50, by convention in mol/L) was less than 5.00 in assay [3] (MV522, Table 1) and 7.89 in assay [4] (Table 1).

With `CNc1nc(N)c(-c2nc(-c3cc(NC(=O)c4cccc(OC)c4)ccc3C)no2)s1` [B(17), N-(3-{5-[4-Amino-2-(3,4,5-methylamino)-thiazol-5-yl]-[1,2,4]oxadiazol-3-yl]-4-methyl-phenyl}-3-methoxy-benzamide], the negative logarithm of the Ki (pKi) in assay [1] (Table 3, some entries 'Slow binder') is 8.47. Moreover, the pIC50 in assay [3] (MV522, Table 3) is 5.89; in assay [4] (Table 3) it was 7.20.

Consider `COc1cc(Nc2nc(N)c(-c3nc(-c4cccc(NC(=O)OCc5ccccc5)c4)no3)s2)cc(OC)c1OC` [D(44), 3-[3-Benzyloxycarboxy-aminophenyl]-5-[2-[(3,4,5-trimethoxyphenyl)amino]-4-amino-5-thiazolyl]-1,2,4-oxadiazole], for which the pKi in assay [1] (Table 1) was 8.68; in assay [2] it was 8.27. The pIC50 in assay [3] (MV522, Table 1) is less than 5.00; in assay [4] (Table 1), 6.43.

As for `COc1cc(Nc2nc(N)c(-c3nc(-c4cccc(NC(=O)c5cccc(C(F)(F)F)c5)c4)no3)s2)cc(OC)c1OC` [D(49), 3-[3-(3-Trifluoromethylbenzamido)phenyl]-5-[2-[(3,4,5-trimethoxyphenyl)amino]-4-amino-5-thiazolyl]-1,2,4-oxadiazole], the pKi in assay [2] was 8.80. For the same compound, the pIC50 in assay [3] (MV522, Table 1) was less than 5.00; in assay [4] (Table 1), 7.82.

In the case of `COc1cc(Nc2nc(N)c(-c3nc(-c4cccc(NC(=O)c5cccc(C(C)C)c5)c4)cs3)s2)cc(OC)c1OC` [D(27), N-{3-[4′-Amino-2′-(3,4,5-trimethoxy-phenylamino)-[2,5′]bithiazolyl-4-yl]-phenyl}-3-isopropyl-benzamide], the negative-log Ki (pKi) in assay [2] is 8.74. Also, the pIC50 in assay [3] (MV522, Table 1) is less than 5.00; in assay [4] (Table 1) it was 7.09.

`COc1cccc(C(=O)Nc2cccc(-c3noc(-c4sc(Nc5cc(OC)c(OC)c(OC)c5)nc4N)n3)c2)c1` [D(48), 3-[3-(3-Methoxybenzamido)phenyl]-5-[2-[(3,4,5-trimethoxyphenyl)amino]-4-amino-5-thiazolyl]-1,2,4-oxadiazole] showed a pKi in assay [2] of 8.39. In addition, the pIC50 in assay [3] (MV522, Table 1) is less than 5.00; in assay [4] (Table 1), 7.40.

With `COc1cc(Nc2nc(N)c(-c3nc(-c4cccc(NC(=O)c5ccccc5)c4)cs3)s2)cc(OC)c1OC` [D(24), N-{3-[4′-Amino-2′-(3,4,5-trimethoxy-phenylamino)-[2,5′]bithiazolyl-4-yl]-phenyl}-benzamide], the pKi in assay [1] (Table 1) was 8.70; in assay [2] it was 8.74. Further, the pIC50 is less than 5.00 in assay [3] (MV522, Table 1) and 6.96 in assay [4] (Table 1).

`CCc1cccc(C(=O)Nc2cccc(-c3csc(-c4sc(Nc5cc(OC)c(OC)c(OC)c5)nc4N)n3)c2)c1` [D(39), N-{3-[4′-Amino-2′-(3,4,5-trimethoxy-phenylamino)-[2,5′]bithiazolyl-4-yl]-phenyl}-3-ethyl-benzamide]: the negative-log Ki (pKi) in assay [2] is 8.85. Also, the negative-log IC50 (pIC50) in assay [3] (MV522, Table 1) was less than 5.00; in assay [4] (Table 1), 7.21.

Take `COc1cc(Nc2nc(N)c(-c3nc(-c4cccc(NC(=O)c5ccc(C)s5)c4)cs3)s2)cc(OC)c1OC` [D(34), 5-Methyl-thiophene-2-carboxylic acid {3-[4′-amino-2′-(3,4,5-trimethoxy-phenylamino)-[2,5′]bithiazolyl-4-yl]-phenyl}-amide]: the negative logarithm of the Ki (pKi) in assay [2] is 9.07. Besides, the pIC50 in assay [3] (MV522, Table 1) is 5.05; in assay [4] (Table 1), 7.05.

The compound `Nc1nc(Nc2ccc(S(N)(=O)=O)cc2)sc1-c1nc(-c2cccc(NC(=O)OCc3ccccc3)c2)cs1` [D(25), {3-[4′-Amino-2′-(4-sulfamoyl-phenylamino)-[2,5′]bithiazolyl-4-yl]-phenyl}-carbamic acid benzyl ester] gave a pKi in assay [2] of 9.00. The pIC50 is less than 5.00 in assay [3] (MV522, Table 1) and 6.13 in assay [4] (Table 1).

As to `COc1cc(Nc2nc(N)c(-c3nc(-c4cccc(NC(=O)c5cccc(Br)c5)c4)cs3)s2)cc(OC)c1OC` [D(29), N-{3-[4′-Amino-2′-(3,4,5-trimethoxy-phenylamino)-[2,5′]bithiazolyl-4-yl]-phenyl}-3-bromo-benzamide], the pKi in assay [2] is 8.85. Further, the pIC50 in assay [3] (MV522, Table 1) is less than 5.00; in assay [4] (Table 1) it was 7.49.

Consider `COc1cc(Nc2nc(N)c(-c3nc(-c4cccc(NC(=O)c5sc(C)nc5C)c4)cs3)s2)cc(OC)c1OC` [D(33), 2,4-Dimethyl-thiazole-5-carboxylic acid {3-[4′-amino-2′-(3,4,5-trimethoxy-phenylamino)-[2,5′]bithiazolyl-4-yl]-phenyl}-amide], for which the negative-log Ki (pKi) is 8.44 in assay [1] (Table 1) and 8.42 in assay [2]. In addition, the pIC50 in assay [3] (MV522, Table 1) is less than 5.00; in assay [4] (Table 1), 6.92.

In assay [2], `COc1cc(Nc2nc(N)c(-c3nc(-c4cccc(NC(=O)c5cccc(Cl)c5)c4)no3)s2)cc(OC)c1OC` [D(50), 3-[3-(3-Chlorobenzamido)phenyl]-5-[2-[(3,4,5-trimethoxyphenyl)amino]-4-amino-5-thiazolyl]-1,2,4-oxadiazole] had a negative logarithm of the Ki (pKi) of 8.85. Besides, the pIC50 is less than 5.00 in assay [3] (MV522, Table 1) and 7.77 in assay [4] (Table 1).

Compound `COc1cc(Nc2nc(N)c(-c3nc(-c4cccc(NC(=O)c5ccccc5)c4)no3)s2)cc(OC)c1OC` [D(46), 3-[3-Benzamidophenyl]-5-[2-[(3,4,5-trimethoxyphenyl)amino]-4-amino-5-thiazolyl]-1,2,4-oxadiazole] had a pKi in assay [2] of 7.77. Further, the pIC50 in assay [3] (MV522, Table 1) is less than 5.00; in assay [4] (Table 1), 6.91.

`COc1cc(Nc2nc(N)c(-c3nc(-c4cccc(NC(=O)OC(C)(C)C)c4)cs3)s2)cc(OC)c1OC` [D(43), {3-[4′-Amino-2′-(3,4,5-trimethoxy-phenylamino)-[2,5′]bithiazolyl-4-yl]-phenyl}-carbamic acid tert-butyl ester] showed a pKi in assay [2] of 8.54. Further, the pIC50 in assay [3] (MV522, Table 1) was less than 5.00; in assay [4] (Table 1) it was 6.62.

In assay [2], `COc1cc(Nc2nc(N)c(-c3nc(-c4cccc(NC(=O)c5ccc(Br)o5)c4)cs3)s2)cc(OC)c1OC` [D(37), 5-Bromo-furan-2-carboxylic acid {3-[4′-amino-2′-(3,4,5-trimethoxy-phenylamino)-[2,5′]bithiazolyl-4-yl]-phenyl}-amide] showed a pKi of 8.47. In addition, the pIC50 in assay [3] (MV522, Table 1) is less than 5.00; in assay [4] (Table 1), 6.82.

In turn, `COc1cc(Nc2nc(N)c(-c3nc(-c4cccc(NS(C)(=O)=O)c4)cs3)s2)cc(OC)c1OC` [D(3), N-{3-[4′-Amino-2′-(3,4,5-trimethoxy-phenylamino)-[2,5′]bithiazolyl-4-yl]-phenyl}-methanesulfonamide] gave a pKi in assay [2] of 7.20. Also, the pIC50 in assay [3] (MV522, Table 1) is less than 5.00; in assay [4] (Table 1), less than 6.15.

For `COc1cccc(C(=O)Nc2cccc(-c3csc(-c4sc(Nc5cc(OC)c(OC)c(OC)c5)nc4N)n3)c2)c1` [D(41), N-{3-[4′-Amino-2′-(3,4,5-trimethoxy-phenylamino)-[2,5′]bithiazolyl-4-yl]-phenyl}-3-methoxy-benzamide], the pKi in assay [2] was 8.72. Moreover, the pIC50 was less than 5.00 in assay [3] (MV522, Table 1) and 7.43 in assay [4] (Table 1).

The compound `COc1cc(Nc2nc(N)c(-c3nc(-c4cccc(NC(=O)c5ccc(Cl)s5)c4)cs3)s2)cc(OC)c1OC` [D(35), 5-Chloro-thiophene-2-carboxylic acid {3-[4′-amino-2′-(3,4,5-trimethoxy-phenylamino)-[2,5′]bithiazolyl-4-yl]-phenyl}-amide] showed a pKi in assay [2] of 8.74. Further, the pIC50 in assay [3] (MV522, Table 1) is less than 5.00; in assay [4] (Table 1), 7.38.

As to `COc1cc(Nc2nc(N)c(-c3nc(-c4cccc(NC(=O)O[C@H](C)c5ccccc5)c4)cs3)s2)cc(OC)c1OC` [D(23), {3-[4′-Amino-2′-(3,4,5-trimethoxy-phenylamino)-[2,5′]bithiazolyl-4-yl]-phenyl}-carbamic acid 1-R-phenyl-ethyl ester], in assay [2], the negative-log Ki (pKi) is 6.82. The pIC50 in assay [3] (MV522, Table 1) was less than 5.00; in assay [4] (Table 1), 6.89.

For `COc1ccc(Nc2nc(N)c(-c3nc(-c4cccc(NC(=O)c5ccccc5)c4)cs3)s2)cc1OC` [A(47), N-{3-[4′-Amino-2′-(3,4-dimethoxy-phenylamino)-[2,5′]bithiazolyl-4-yl]-phenyl}-benzamide], in assay [2], the pKi was 8.10. In addition, the pIC50 in assay [3] (MV522, Table 1) is less than 5.00; in assay [4] (Table 1), 6.59.

The values are drawn from US6620828B2, “Thiazole compounds and pharmaceutical compositions for inhibiting protein kinases and methods for their use” (Agouron Pharmaceuticals, Inc., priority 1999, dated 2003).
